Assay results taken from patent US4159334A, “Medicinal preparation with an antiinflammatory, analgesic and antipyretic effect” (priority 1977, dated 1979).
“Also recorded” adds a separate entry of the source.

Tests used:
[1] = brufen side effects, source not stated; cited from earlier work
[2] = embryotoxic effects in rats; type: in vivo
Description: The preparation was examined for possible embryotoxic effects in rats.

[3] = tail burning test in mice; type: in vivo; details: for reduction of the reaction to a thermal irritant: mice
Procedure: (§1) For example, the preparation introduced orally to mice in 10 and 20 mg/kg doses reduced the reaction of the mice to a thermal irritant by 47-75% an hour after administration. Acetylsalicylic acid in 40-300 mg/kg doses causes an effect equal to 37-87%.

[4] = acute toxicity to anti-edematous action ratio (LD50/ED50) in mice; type: in vivo; details: oral administration, acetylsalicylic acid = 1
[5] = phenamine hyperthermia in mice; type: in vivo
Description: | Phenamine hyperthermia in

[6] = Aerosol-induced edema of paw in mice (acute test); type: in vivo; details: acetylsalicylic acid = 1
Description: Aerosol-induced edema of
paw in mice (acute test)

[7] = Aerosol-induced edema of paw in rats (subacute test), exudative process; type: in vivo
Description: Aerosol-induced edeima of
ry paw in rats (subacute test)

[8] = acute toxicity in mice (oral, intraperitoneal); details: for LD50: mouse, in vivo
yeast fever in rats = type: in vivo
[9] = painful irritation of rat's paw with electric current; type: in vivo, rats; details: acetylsalicylic acid = 1
[10] = acetic acid "writhing" in mice; type: in vivo; details: acetylsalicylic acid = 1
[11] = clinical trials, therapeutic effect; type: in vivo, human patients
Description: (§2) The course of treatment lasted 3 to 4 weeks. In individual cases, the preparation was given once daily for 1 to 5 days as a symptomatic remedy (analgesic and antipyretic).
The main group of the patients given a course of treatment (203 persons), had the following diseases: rheumatism (active phase, 1st-2nd degree, according to A. I. Nesterov's classification) affecting the joints and heart (primary and recurrent rheumocarditis, heart disease of rheumatic etiology with symptoms of cardiac decompensation, of the 1-2A degree)--76 patients; polyarthritis (rheumatoid, exacerbation of chronic infectious, acute infectious-allergic, metabolic)--89 patients; arthrosis, spondylosis, exacerbation of chronic interstitial pneumonia--9 patients.
(§3) The effectiveness of the preparation was assessed by changes in complaints, clinical observation results (temperature, sensation of pain, local manifestations of the inflammatory process) and laboratory examination data (changes patients' peripheral blood picture, albumin fractions, glycoproteins and sialic acids content in blood serum, examination of stools for occult blood before and after treatment, etc.).

[12] = set-up: species or system human patients; details: human, in vivo
Procedure: as §2, §3
Clinicians hold the option that tolerance to the preparation is good.

[13] = implanted sterile paper balls, granuloma weight in rats; type: in vivo; details: 10 and 20 mg/kg
Procedure: It was established in tests with rats with implanted sterile paper rolled into balls that 10 and 20 mg/kg doses of the preparation reduce the weight of the granulomas by 41-60% and, consequently, produce an inhibiting effect on proliferation processes during inflammation.

[14] = in vivo
[15] = carrageenin-induced inflammatory edema, comparison with literature data; type: in vivo
[16] = test system: erythrocyte aggregation reaction; test: membrane-stabilizing effect: erythrocyte aggregation reaction caused by a gelatine solution, in vitro and in vivo; type: cell-based
[17] = test system: cells of the amnionic membrane; type: cell-based, human
[18] = influence on organ functions and internal organs of animals; type: in vivo
[19] = comparison of analgesic ED50 values in three models (tail burning, writhing, electric current); type: in vivo; details: acetic acid writhing (mice), electric current (rats)
Procedure: as §1

[20] = set-up: species or system rabbits; details: rabbit, in vivo
[21] = tolerance on oral administration for 2 to 4 months; type: in vivo; details: rats, rabbits and dogs, doses equal to 5% of LD50, 30 and 70 times the human dose
Description: These doses, which are conventionally therapeutic, and equal to 5% of the LD50 for these animals, exceeded 30 and 70 times the dose recommended for humans.

[22] = comparison of activity with acetylsalicylic acid, all experimental studies; type: in vivo; details: Table 2
[23] = tests in adrenalectomized animals; type: in vivo
[24] = carrageenin and aerosol-induced inflammatory edema, acute tests in mice; type: in vivo; details: single oral doses of 5 to 20 mg/kg
[25] = in vivo; remark: listed apart in the source
antibacterial action = details: in contrast to brufen
[26] = set-up: species or system human patients; details: human, in vivo; remark: listed apart in the source
Description: On the basis of these experimental data, the preparation was used clinically for the treatment of patients with chronic polyarthritis accompanied by gastrointestinal pathology, namely duodenal ulcer in the stage of remission. […] In view of the above, and also in view of the new preparation's general good tolerance, it may be used in patients with accompanying diseases of the organs of the alimentary system, which are contraindications to the use of most of the antiinflammatory remedies.

acute toxicity in cats = type: in vivo
[27] = rheumatic heart and joint disease

## CC(C)Cc1ccc(C(C)C(=O)O)cc1 (centres unmarked) [Brufen]
[1]
  abdominal pain and headaches: 11%
  allergic symptoms: 6-8%
  dyspepsia, gastrointestinal hemorrhages, bronchospasm, thrombocytopenia, mental disorders, exacerbation of cholecystitis: 11-15%

## CC(=O)Oc1ccccc1C(=O)O [acetylsalicylic acid, reference compound]
[2]; parallel comparative tests
  embryotoxic effect: produces an embryotoxic effect
[3]; acetylsalicylic acid = 1
  Relative activity, analgesic, burning tail of mice: 1
[3]; 40-300 mg/kg
  reduction of the reaction to a thermal irritant: 37-87%
[4]
  Relative therapeutic index, acute toxicity to anti-edematous action ratio (LD50/ED50): 1
[5]; acetylsalicylic acid = 1
  Relative activity, antipyretic, phenamine hyperthermia in mice: 1
[6]
  Relative activity, antiinflammatory, aerosol-induced edema of paw in mice (acute test): 1
[7]; acetylsalicylic acid = 1
  Relative activity, antiinflammatory, aerosol-induced edema of paw in rats (subacute test): 1
[7]; rats, same test conditions, subacute
  dose producing a similar effect, relative to the proposed preparation: 30 times
[8]; mice
  enteral coefficient: -1.8
[8]; ip
  LD50: 1100 mg/kg
[8]; po
  LD50: 1910 mg/kg
Yeast fever in rats; acetylsalicylic acid = 1
  Relative activity, antipyretic, yeast fever in rats: 1
[9]
  Relative activity, analgesic, painful irritation of rat's paw with electric current: 1
[10]
  Relative activity, analgesic, acetic acid "writhing" in mice: 1

## OC(Nc1nccs1)C(Cl)(Cl)Cl (centres unmarked) [proposed preparation, 2,2,2-trichloro-1-(2-thiazolylamino)-ethanol]
[11]; arthritis of different etiology, 89 patients
  patients with pronounced therapeutic effect, arthritis: 68%
[11]; arthrosis, spondylosis and exacerbation of chronic interstitial pneumonia
  patients with similar therapeutic effect: 65%
[11]; out of 89
  number of patients with pronounced therapeutic effect, arthritis: 61
[11]; out of the 76 patients
  number of patients with pronounced therapeutic effect, rheumatic: 61 patients
[11]; patients
  drop in temperature, time: towards the end of the first week of therapy
[11]; patients, 3 to 4 week course
  temperature after course: completely normalized
[11]; patients, 4th to 9th day from beginning of treatment
  general status, physical activity, symptoms of local inflammation: improvement of the patient's general status, increasing physical activity, abatement of symptoms of local inflammation
[11]; [27]
  ECG indices: ECG indices improved: extrasystole disappeared, symptoms of myocardial anoxia diminished
  pain in the region of the heart: abated
  paraclinical data: albumin content and gamma-fraction of the blood: a marked tendency towards a higher albumin content and the normalization of the gamma-fraction of the blood
  paraclinical data: leukocytes, ESR: disappearance of leukocytes drop of the ESR to normal
[11]; rheumatic patients
  neurological status: improvement of their neurological status was observed, manifested by diminishing asthenia and irritability
[11]; rheumatic patients, 76 patients
  patients with pronounced therapeutic effect, rheumatic: 80%
[2]; 55 mg/kg, 12 days from the 9th day of pregnancy
  effect on development of the rat embryos: does not affect the development of the rat embryos
[12]
  contraindications: No contraindications
  influence on peripheral blood composition: no influence on the peripheral blood composition
  leukocyte count: diminished to norm in leukocytosis and increased in leukopenia
  tolerance: good
[3]; oral, 10 and 20 mg/kg, an hour after administration
  reduction of the reaction to a thermal irritant: 47-75%
[13]
  reduction of the weight of the granulomas: 41-60%
[14]
  discomfort in the epigastral region: 1.6 % of cases
  drug dermatitis: 2.4%
  reversibility of side effects: pass quickly once the preparation is discontinued
[15]
  antiinflammatory activity compared with sodium salicylate, phenylbutazone, mephenamic acid (Ponstan) and brufen: higher than that of sodium salicylate, phenylbutazone, mephenamic acid (Ponstan) and brufen
[16]
  membrane-stabilizing effect (erythrocyte aggregation reaction): mitigation of the erythrocyte aggregation reaction
[17]
  toxic effect on cells of the amnionic membrane: nor does it have any toxic effect
[18]
  functions of the respiratory and cardiovascular systems: does not affect
[19]
  analgesic effect: analgesic effect was proved by three methods
[20]
  irritation of tissues: does not cause irritation
[5]; mice, same dose (100 mg/kg) followed by phenamine
  phenamine hyperthermia: do not manifest the usual hyperthermia
[7]; rats, 10 mg/kg, within 3 hours after administration
  reduction of intensity of the exudative process: reducing its intensity by half
[8]; from enteral coefficient
  absorption from the gastrointestinal tract compared with acetylsalicylic acid: better absorption of the preparation from the gastrointestinal tract
[8]; ip
  LD50: 708 mg/kg
[8]; po
  LD50: 1050 mg/kg
Yeast fever in rats; rats with yeast fever, 100 mg/kg
  antipyretic effect compared with acetylsalicylic acid: corresponds to that produced by a 300 mg/kg dose of acetylsalicylic acid
[21]
  tolerance on long oral administration: well tolerated
[22]
  activity compared with acetylsalicylic acid: higher activity than acetylsalicylic acid; also recorded: superior to acetylsalicylic acid in all the main effects
[23]
  contribution of the adrenal system to antiinflammatory effect: andrenal system contributes to the proposed preparation's antiinflammatory effect
[24]
  reduction of the symptoms of exudation: 17-62%
[25]
  harmful effect on the gastrointestinal mucosa: no harmful effect on the gastrointestinal mucosa
Antibacterial action
  antibacterial action: moderately pronounced antibacterial action
[26]
  exacerbation of the ulcerous disease: did not cause an exacerbation of the ulcerous disease
  fecal reaction to occult blood: negative in all the patients
Acute toxicity in cats; acute toxicity, doses in excess of 1 g/kg
  picture of intoxication: pronounced inhibition in the animals into a state similar to the prenarcotic state
Acute toxicity in cats; cats
  dose causing symptoms of intoxication and death: > 1000 mg/kg
